The nature of series [1]: In vivo biodistribution (His-ELISA). Set-up: species or system BALB/c nude mice. As to conditions: His-CY12-RP2, 25 and 100 mg/kg, tail vein. The procedure: In vivo biodistribution assay was conducted in BALB/c nude mice with melanoma tumor. Here we prepared 15 female BALB/c mice with subcutaneous melanoma tumor, and divided into three groups with each group of five. Mice were treated with His-CY12-RP2 by tail vein administration at various doses (25 mg/kg and 100 mg/kg). We collected at least 50 μL orbital blood samples by using capillary blood vessels at 6 h, 12 h, 24 h, 36 h, and 48 h, respectively. Five mice were used for the study of in vivo biodistribution of peptide. The organs including heart, liver, spleen, lung and kidney were collected after BALB/c nude mice were sacrificed at 48 h. The biodistribution of CY12-RP2 in blood and organs were measured using an ELISA kit (Shenzhen Ziker Biological Technology, Shenzhen, China) following the kit’s instructions.
Fig. S4: The inhibition of cells metastasis and invasion by CY12-RP2 can be […]
(A, B) The inhibition of CY12-RP2 on the migration capacity of melanoma cell lines was reversed by SKL2001 (A). Statistical analysis was performed to determine the migrated distance (B). The power field scale bar, 100 μm. (C, D) Effect of CY12-RP2 on the invasive ability of melanoma cell lines were reversed by SKL2001 (C).
Statistical analysis was performed to count the invaded cells (D). The power field scale bar, 100 μm. (E) Western blot assay was also performed to detect the proteins related to EMT and Wnt/β-catenin signaling pathway, including N-cadherin, Vimentin, snail, Dvl2, Phospho-β-catenin-S675, β-catenin, Phospho-GSK3β-Ser9 and GSK3β by CY12-RP2 with or without SKL2001 (50 μM). Data are presented as mean ± SD. *p < […]
(A) TUNEL analysis of apoptosis was conducted on orthotopic xenografts tumor sections using fluorescence staining. […] (B) Fluorescence staining of Ki67 was carried out on orthotopic xenograft tumor sections.
The power field scale bar, 100 μm. (C) Serum His-CY12-RP2 levels of the orthotopic xenografts mice treated by various dosage of CY12-RP2 were measured by His-ELISA kit. […]
kit. (E) Serum ALT, AST, TG, and γ-GT levels of the orthotopic xenografts model were measured by ELISA. […]
For orientation: ELISA stands for enzyme-linked immunosorbent assay.

The test system of series [2] is A875 cells. Description: Transwell matrigel invasion, A875. In kind it is cell-based. As to conditions: transwell matrigel, 0, 5, 25 μM, 48 h. The procedure: For invasion assay, matrigel (Corning, New York, USA) was coated on the upper surface of the upper chamber. The upper chamber was filled with DMEM medium containing 2% FBS, while the lower chamber contained a medium supplemented with 20% FBS. In brief, melanoma cells (A375 GFP, A875 GFP, A375 PDPN^−/−, and A875 PDPN^+/+ cells) were seeded in the upper chamber of the transwell plate (Corning, New York, USA) at about 5 × 10^4 cells/well with the medium as described above. For peptide functionality experiments, A375 and A875 cells were seeded in the upper chamber of the transwell plate at a density of 5 × 10^4 cells/well with various peptide concentrations (0 μM, 5 μM, 25 μM). Transwell inserts were fixed using 4% paraformaldehyde after 48 h cell invasion, and crystalline violet was used for staining. The quantities of invading cells were quantified using ImageJ software (NIH).

Series [3] has as its system 3D melanoma spheroid (A375). Description: 3D melanoma spheroid / PBMC co-culture. In kind it is cell-based. As to conditions: 0, 2, 10, 50 μM, with increasing concentrations. The procedure:
Prepared melanoma cells spheroids were plated in 48-well plates. Following incubation for 3 days, the spheroids were exposed to different concentrations (0, 50, 100 and 200 μM) of CY12-RP2, and changes in spheroid diameter were detected after 5 days of treatment. Additionally, melanoma cell spheroids were treated with various concentrations of CY12-RP2 as described previously, and after 72 h, the spheroids were stained for immunofluorescence with caspase 3 primary antibody. The specific experimental procedures refer to the following immunofluorescence analysis. Additionally, we co-cultured peptide-stimulated PBMC with spheroids to determine the tumor-killing ability of activated PBMC.
Fig. 6 Influence of CY12-RP2 on the immune-mediated anti-tumor capacity of PBMC in vitro and in vivo. A The procedure of PBMC isolation from donor peripheral blood, and the ratio of different immune cells in PBMC was assayed by flow cytometry. B PBMCs were stimulated with CY12-RP2 for 48 h, and the cytokine levels in the supernatant were assayed by ELISA. […] E Brightfield and fluorescent microscopy images of A375 cells (red) co-culture with PBMC (GFP) were stimulated with various concentrations (0, 2, 10, 50 μM) of CY12-RP2. Data are presented as mean ± SD. *p < 0.05, **p < 0.01, ***p < 0.001 versus control

Series [4] relates to cytokines in mouse plasma. Description: Plasma cytokines in lung metastasis model (ELISA). As to conditions: lung metastases model, vs control. In kind it is in vivo, BALB/c mice. The procedure:
The levels of major inflammatory cytokines, including TNF-α, IL-1β, IL-2, TGF-β, IFN-γ, and IL-10, were measured using an ELISA kit (Shenzhen Ziker Biological Technology, Shenzen, China). Briefly, culture supernatants of cells and serum of pulmonary metastasis mouse model were respectively collected and added to an antibody pre-coated 96-well plates, and then followed up according to the manufacturer's instructions.
For pulmonary metastasis assays, 6- to 8-week-old female BALB/c mice were administered with 5 × 10^5 B16F10-Luc cells via tail vein to establish an experimental pulmonary metastasis model of melanoma. CY12-RP2 was administered to the mice intravenously at high and low doses (25 mg/kg and 100 mg/kg) every two days, and the mice were sacrificed after 15 days of treatment. Pulmonary metastases were evaluated using bioluminescence imaging on the 2nd, 5th, 10th, 15th and 20th day after B16F10-Luc cells injection. Subsequently, the BALB/c mice were sacrificed, and the organs including the heart, liver, spleen, lung, and kidney were collected and imaged for evaluation of micrometastases. The xenografts and organs were kept in a 4% paraformaldehyde solution for subsequent histological assays.

Structures are written as SMILES. Peptide text beside a SMILES is read from it.

Take `CC(C)C[C@H](NC(=O)[C@H](Cc1ccc(O)cc1)NC(=O)[C@@H](N)[C@@H](C)O)C(=O)N[C@@H](CS)C(=O)N[C@H](C(=O)N[C@@H](C)C(=O)N[C@@H](CS)C(=O)N[C@@H](CC(=O)O)C(=O)N[C@@H](Cc1ccc(O)cc1)C(=O)N[C@H](C(=O)N[C@@H](Cc1c[nH]cn1)C(=O)N[C@@H](Cc1c[nH]cn1)C(=O)O)[C@@H](C)O)[C@@H](C)O` [CY12-RP2] (H-TYLCTACDYTHH-OH; N-terminus and C-terminus assumed): in series [1] (serum, 6-48 h), the “serum level after peak” value is on record as “moderately decreased progressively with time”. In addition, the “time of peak serum level” value in series [1] (serum, sampled 6, 12, 24, 36, 48 h) is 6 h. Also, in series [1] (tumor vs heart, liver, spleen, lung, kidney at 48 h), the organ distribution result was “significant ability to target tumors compared to other organs”. The invasion entry in series [2] was “could only be inhibited at high concentrations”. The “tumor-killing capacity of PBMC” value in series [3] is recorded as “increased”. Also, in series [4], the “plasma IFN-γ” value is reported as “significantly elevated”, the “plasma IL-1β” value was “significantly elevated”, the “plasma IL-2” value is on record as “reduced” and the “plasma IL-10” value is on record as “reduced”. Also, in series [4], the “plasma TGF-β” value is reported as “reduced” and the “plasma TNF-α” value is listed as “significantly elevated”.

The record behind these values is article PMC10759609, “A novel PDPN antagonist peptide CY12-RP2 inhibits melanoma growth via Wnt/β-catenin and modulates the immune cells” (Journal of Experimental & Clinical Cancer Research : CR, 2024).
